In US9296697B2, “Hetaryl-substituted guanidine compounds and use thereof as binding partners for 5-HT5-receptors” (Abbott Laboratories, priority 2005, dated 2016):
Structures can show the parent of a compound that is named as a salt.

molecular target: T1, h5-HT5A receptor (Homo sapiens, UniProt P47898); assay: h5-HT5A [3H]5-CT binding assay; settings: affinity for 5-HT5A; membranes of HEK293 cells expressing the h5-HT5A receptor gene, 2.5 nM [3H]5-CT
T1 construct: expressed in transfected cells; membranes used
Protocol: h5-HT5A [^3H]5-CT Binding Assay
Membranes of HEK293 cells which permanently express the h5-HT5A receptor gene were incubated in 100 mM tris-HCl buffer (pH 7.7) containing 1 mM EDTA, in the presence of 2.5 nM [^3H]5-CT (total volume 600 μL). The total binding is defined as the binding that is observed when the membranes are incubated in the presence of only the radioligand. The inhibition induced by the compound is determined by incubation of cell membranes in the presence of the radioligand and various concentrations of the compound of interest. Nonspecific binding is defined as the [^3H]5-CT binding obtained by incubation of the membranes, the same as for the total binding, but in the presence of 10 μM methiothepine. Following incubation for 75 min at 30° C., the membrane suspension was filtered through a GF/B-Filter coated with 0.03% PEI, using a Skatron® harvesting system. The residual radioactivity in the filter was quantified by liquid scintillation counting.
Various concentrations of the test substances were used in both assays, and the Ki or IC50 values were determined.

T1 sequence (P47898 whole entry): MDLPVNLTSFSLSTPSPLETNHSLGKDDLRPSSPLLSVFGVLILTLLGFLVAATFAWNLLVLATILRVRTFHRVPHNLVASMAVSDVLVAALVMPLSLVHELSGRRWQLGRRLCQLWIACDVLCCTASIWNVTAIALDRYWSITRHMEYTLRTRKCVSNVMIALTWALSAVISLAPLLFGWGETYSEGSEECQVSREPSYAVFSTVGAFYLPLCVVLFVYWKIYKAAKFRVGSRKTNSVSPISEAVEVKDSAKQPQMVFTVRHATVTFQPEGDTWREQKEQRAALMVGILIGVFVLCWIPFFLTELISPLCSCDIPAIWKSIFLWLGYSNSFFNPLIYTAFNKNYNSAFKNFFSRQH

Compound	Ki
COc1ccccc1CNC(=N)Nc1ccccn1 [Example 1, N-(2-methoxybenzyl)-N′-pyridin-2-yl-guanidine acetate]	< 100 nM
COc1cccc(OC)c1CNC(=N)Nc1ccc(I)cn1 [Example 3, N-(2,6-dimethoxybenzyl)-N′-(5-iodopyridin-2-yl)guanidine]	< 100 nM
COc1ccccc1CN=C(N)Nc1ccc(I)cn1 [Example 4, N-(5-Iodopyridin-2-yl)-N″-(2-methoxybenzyl)guanidine]	< 100 nM
COc1cccc(OC)c1CNC(=N)Nc1ccccn1 [Example 5, N-(2,6-dimethoxybenzyl)-N′-pyridin-2-yl-guanidine acetate]	< 100 nM
COc1ccccc1CNC(=N)Nc1ccc(C)cn1 [Example 6, N-(2-methoxybenzyl)-N′-(5-methylpyridin-2-yl)guanidine acetate]	< 100 nM
COc1cccc(OC)c1CNC(=N)Nc1ccc(C)cn1 [Example 7, N-(2,6-dimethoxybenzyl)-N′-(5-methylpyridin-2-yl)guanidine]	< 100 nM
COc1ccccc1CNC(=N)Nc1cccc(C)n1 [Example 8, N-(2-Methoxybenzyl)-N′-(6-methylpyridin-2-yl)guanidine]	< 100 nM
COc1cccc(OC)c1CNC(=N)Nc1cccc(C)n1 [Example 9, N-(2,6-dimethoxybenzyl)-N′-(6-methylpyridin-2-yl)guanidine]	< 100 nM
COc1ccccc1CNC(=N)Nc1ncc(C(F)(F)F)cc1Cl [Example 10, N-[3-Chloro-5-(trifluoromethyl)pyridin-2-yl]-N′-(2-methoxybenzyl)guanidine acetate]	< 10000 nM
COc1cccc(OC)c1CNC(=N)Nc1ncc(C(F)(F)F)cc1Cl [Example 11, N-[3-Chloro-5-(trifluoromethyl)pyridin-2-yl]-N′-(2,6-dimethoxybenzyl)guanidine acetate]	< 10000 nM
COc1ccccc1CNC(=N)Nc1ncccc1C [Example 12, N-(2-Methoxybenzyl)-N′-(3-methylpyridin-2-yl)guanidine acetate]	< 100 nM
COc1cccc(OC)c1CNC(=N)Nc1ncccc1C [Example 13, N-(2,6-Dimethoxybenzyl)-N′-(3-methylpyridin-2-yl)guanidine acetate]	< 100 nM
COc1ccccc1CNC(=N)Nc1nccc(-c2cccs2)n1 [Example 14, N-(2-Methoxybenzyl)-N′-(4-(2-thienyl)pyrimidin-2-yl]guanidine acetate]	< 10000 nM
COc1cccc(OC)c1CNC(=N)Nc1nccc(-c2cccs2)n1 [Example 15, N-(2,6-Dimethoxybenzyl)-N′-[4-(2-thienyl)pyrimidin-2-yl]guanidine acetate]	< 100 nM
COc1ccccc1CNC(=N)Nc1cnc2ccccc2c1 [Example 16, N-(2-Methoxybenzyl)-N′-quinolin-3-yl-guanidine acetate]	< 10000 nM
COc1cccc(OC)c1CNC(=N)Nc1cnc2ccccc2c1 [Example 17, N-(2,6-Dimethoxybenzyl)-N′-quinolin-3-yl-guanidine acetate]	< 100 nM
COc1cccc(Cl)c1CNC(=N)Nc1ccc(C)cn1 [Example 18, N-(2-Chloro-6-methoxybenzyl)-N′-(5-methylpyridin-2-yl)guanidine acetate]	< 100 nM
COc1cccc(C)c1CNC(=N)Nc1ccc(C)cn1 [Example 19, N-(2-Methoxy-6-methylbenzyl)-N′-(5-methylpyridin-2-yl)guanidine]	< 100 nM
COc1cccc(F)c1CNC(=N)Nc1ccc(C)cn1 [Example 20, N-(2-Fluoro-6-methoxybenzyl)-N′-(5-methylpyridin-2-yl)guanidine acetate]	< 100 nM
Cc1ccc(NC(=N)NCc2ccccc2Cl)nc1 [Example 21, N-(2-Chlorobenzyl)-N′-(5-methylpyridin-2-yl)guanidine]	< 300 nM
CCOc1ccccc1CNC(=N)Nc1ccc(C)cn1 [Example 22, N-(2-Ethoxybenzyl)-N′-(5-methylpyridin-2-yl)guanidine acetate]	< 100 nM
Cc1ccc(NC(=N)NCc2ccccc2OC(C)C)nc1 [Example 23, N-(2-Isopropoxybenzyl)-N′-(5-methylpyridin-2-yl)guanidine acetate]	< 100 nM
Cc1ccc(NC(=N)NCc2ccccc2OC(F)(F)F)nc1 [Example 24, N-(5-Methylpyridin-2-yl)-N′-[2-(trifluoromethoxy)benzyl]guanidine]	< 100 nM
CCc1ccccc1CNC(=N)Nc1ccc(C)cn1 [Example 25, N-(2-Ethylbenzyl)-N′-(5-methylpyridin-2-yl)guanidine]	< 300 nM
Cc1ccc(NC(=N)NCc2ccccc2OC(F)F)nc1 [Example 26, N-[2-(Difluoromethoxy)benzyl]-N′-(5-methylpyridin-2-yl)guanidine]	< 100 nM

Compound	Ki
Cc1ccc(NC(=N)NCc2c(Cl)cccc2Oc2ccccc2)nc1 [Example 27, N-(2-Chloro-6-phenoxybenzyl)-N′-(5-methylpyridin-2-yl)guanidine acetate]	< 100 nM
Cc1ccc(NC(=N)NCc2ccccc2Oc2ccccc2)nc1 [Example 28, N-(5-Methylpyridin-2-yl)-N′-(2-phenoxybenzyl)guanidine hydrochloride]	< 100 nM
COc1ccccc1CNC(=N)Nc1cc(C)ccn1 [Example 29, N-(2-Methoxybenzyl)-N′-(4-methylpyridin-2-yl)guanidine acetate]	< 100 nM
COc1cccc(OC)c1CNC(=N)Nc1cc(C)ccn1 [Example 30, N-(2,6-Dimethoxybenzyl)-N′-(4-methylpyridin-2-yl)guanidine acetate]	< 100 nM
COc1cccc(Cl)c1CNC(=N)Nc1ncccc1C [Example 31, N-(2-Chloro-6-methoxybenzyl)-N′-(3-methylpyridin-2-yl)guanidine]	< 100 nM
COc1cccc(F)c1CNC(=N)Nc1ncccc1C [Example 32, N-(2-Fluoro-6-methoxybenzyl)-N′-(3-methylpyridin-2-yl)guanidine]	< 100 nM
COc1cccc(C)c1CNC(=N)Nc1ncccc1C [Example 33, N-(2-Methoxy-6-methylbenzyl)-N′-(3-methylpyridin-2-yl)guanidine]	< 100 nM
COc1ccccc1CNC(=N)Nc1cccnc1 [Example 34, N-(2-Methoxybenzyl)-N′-pyridin-3-yl-guanidine acetate]	< 10000 nM
COc1ccccc1CNC(=N)Nc1ccc[n+](C)c1 [Example 35, 3-({Imino[(2-methoxybenzyl)amino]methyl}amino)-1-methylpyridinium acetate]	< 10000 nM
COc1ccccc1CNC(=N)Nc1ncccn1 [Example 36, N-(2-Methoxybenzyl)-N′-pyrimidin-2-yl-guanidine acetate]	< 10000 nM
COc1cccc(OC)c1CNC(=N)Nc1ncccn1 [Example 37, N-(2,6-Dimethoxybenzyl)-N′-pyrimidin-2-ylguanidine]	< 100 nM
COc1ccccc1CNC(=N)Nc1cc2ccccc2cn1 [Example 38, N-Isoquinolin-3-yl-N′-(2-methoxybenzyl)guanidine]	< 100 nM
COc1cccc(OC)c1CNC(=N)Nc1cc2ccccc2cn1 [Example 39, N-(2,6-Dimethoxybenzyl)-N′-isoquinolin-3-ylguanidine]	< 100 nM
COc1ccccc1CNC(=N)Nc1ccc2ccccc2n1 [Example 40, N-(2-Methoxybenzyl)-N′-quinolin-2-yl-guanidine acetate]	< 100 nM
COc1cccc(OC)c1CNC(=N)Nc1ccc2ccccc2n1 [Example 41, N-(2,6-Dimethoxybenzyl)-N′-quinolin-2-yl-guanidine acetate]	< 100 nM
COc1ccccc1CNC(=N)Nc1cccc(Br)n1 [Example 42, N-(6-Bromopyridin-2-yl)-N′-(2-methoxybenzyl)guanidine]	< 100 nM
COc1cccc(OC)c1CNC(=N)Nc1cccc(Br)n1 [Example 43, N-(6-Bromopyridin-2-yl)-N′-(2,6-dimethoxybenzyl)guanidine]	< 100 nM
COc1cccc(OC)c1CNC(=N)Nc1cc(Br)ccn1 [Example 44, N-(4-Bromopyridin-2-yl)-N′-(2,6-dimethoxybenzyl)guanidine]	< 100 nM
COc1ccccc1CNC(=N)Nc1cc(Br)ccn1 [Example 45, N-(4-Bromopyridin-2-yl)-N′-(2-methoxybenzyl)guanidine]	< 100 nM
COc1cccc(OC)c1CNC(=N)Nc1ncccc1Br [Example 46, N-(3-Bromopyridin-2-yl)-N′-(2,6-dimethoxybenzyl)guanidine acetate]	< 100 nM
COc1ccccc1CNC(=N)Nc1ncccc1Br [Example 47, N-(3-Bromopyridin-2-yl)-N′-(2-methoxybenzyl)guanidine acetate]	< 10000 nM
COc1ccccc1CNC(=N)Nc1cccc(-c2ccc(OC(F)(F)F)cc2)n1 [Example 48, N-(2-Methoxybenzyl)-N′-{6-[4-(trifluoromethoxy)phenyl]pyridin-2-yl}guanidine]	< 10000 nM
COc1ccccc1CNC(=N)Nc1cccc(-c2cccs2)n1 [Example 49, N-(2-Methoxybenzyl)-N′-[6-(2-thienyl)pyridin-2-yl]guanidine]	< 100 nM
COc1ccccc1CNC(=N)Nc1cccc(-c2ccc(F)cc2)n1 [Example 50, N-[6-(4-Fluorophenyl)pyridin-2-yl]-N′-(2-methoxybenzyl)guanidine]	< 300 nM
COc1ccccc1CNC(=N)Nc1cccc(-c2ccccc2)n1 [Example 51, N-(2-Methoxybenzyl)-N′-(6-phenylpyridin-2-yl)guanidine acetate]	< 100 nM
